Source: patent US9724276B2, “Dental materials and method of manufacture” (Valspar Sourcing, Inc., priority 2012, dated 2017)

Columns and labels:
MCF-7, clone WS8, cells = assay: MCF-7 cell proliferation assay of estrogenic activity; assay type: cell-based, human; conditions: logarithmic (base 10) Relative Proliferative Effect relative to 17-beta estradiol, MCF-7 assay; values 'expected or measured'
From the text: The MCF-7 assay is a useful test for assessing whether a polyhydric phenol compound is appreciably non-estrogenic. The MCF-7 assay uses MCF-7, clone WS8, cells to measure whether and to what extent a substance induces cell proliferation via estrogen receptor (ER)-mediated pathways. The method is described in “Test Method Nomination: MCF-7 Cell Proliferation Assay of Estrogenic Activity” submitted for validation by CertiChem, Inc. to the National Toxicology Program Interagency Center for the Evaluation of Alternative Toxicological Methods (NICEATM) on Jan. 19, 2006 (available online at iccvam.niehs.nih gov/methods/endocrine/endodocs/SubmDoc.pdf).
A brief summary of the method of the aforementioned MCF-7 assay is provided below. MCF-7, clone WS8, cells are maintained at 37° C. in RMPI (or Roswell Park Memorial Institute medium) containing Phenol Red (e.g., GIBCO Catalog Number 11875119) and supplemented with the indicated additives for routine culture. An aliquot of cells maintained at 37° C. are grown for two days in phenol-free media containing 5% charcoal stripped fetal bovine serum in a 25 cm^2 tissue culture flask. Using a robotic dispenser such as an EPMOTION™ 5070 unit from Eppendorf AG, MCF-7 cells are seeded at 400 cells per well in 0.2 ml of hormone-free culture medium in Corning 96-well plates. The cells are adapted for 3 days in the hormone-free culture medium prior to adding the chemical to be assayed for estrogenic activity. The media containing the test chemical is replaced daily for 6 days. At the end of a 7 day exposure to the test chemical, the media is removed, the wells are washed once with 0.2 ml of HBSS (Hanks' Balanced Salt Solution), and then assayed to quantify amounts of DNA per well using a micro-plate modification of the Burton diphenylamine (DPA) assay, which is used to calculate the level of cell proliferation. […]

[1] = genotoxicity assays (e.g., Ames II assay)
human estrogen receptor = biological target: T1, human estrogen receptor (Homo sapiens, UniProt P03372); assay: suitable in vitro assay of estrogenic activity whose results correlate with the MCF-7 assay (outside toxicology laboratory); conditions: in vitro assay correlated to MCF-7 assay through common reference compounds
T1 sequence (P03372 1-595): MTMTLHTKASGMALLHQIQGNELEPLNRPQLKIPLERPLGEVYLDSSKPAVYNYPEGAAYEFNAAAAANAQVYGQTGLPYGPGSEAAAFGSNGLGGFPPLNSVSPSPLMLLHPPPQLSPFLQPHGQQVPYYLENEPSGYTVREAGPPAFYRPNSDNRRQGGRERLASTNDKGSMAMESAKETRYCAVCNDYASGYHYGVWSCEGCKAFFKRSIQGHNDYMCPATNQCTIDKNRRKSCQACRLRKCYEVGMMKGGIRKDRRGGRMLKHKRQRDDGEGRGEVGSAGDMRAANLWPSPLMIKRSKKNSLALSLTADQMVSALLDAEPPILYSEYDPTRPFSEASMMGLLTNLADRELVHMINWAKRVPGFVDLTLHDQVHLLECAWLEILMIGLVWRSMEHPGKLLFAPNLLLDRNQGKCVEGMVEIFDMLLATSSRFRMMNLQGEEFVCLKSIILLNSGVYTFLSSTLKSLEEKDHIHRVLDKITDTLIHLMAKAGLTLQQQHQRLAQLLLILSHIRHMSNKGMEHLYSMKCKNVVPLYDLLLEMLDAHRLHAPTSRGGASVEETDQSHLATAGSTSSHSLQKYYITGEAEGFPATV
Protocol: The polyhydric phenols used to make the diglycidyl ethers of each of Runs I-III were assayed for estrogenic activity by an outside toxicology laboratory using a suitable assay whose results are known to be directly correlatable to the MCF-7 assay based on common reference compounds.

SMILES | Log RPE (MCF-7, clone WS8, cells) | estrogenic activity (human estrogen receptor) | further results
C[C@]12CC[C@@H]3c4ccc(O)cc4CC[C@H]3[C@@H]1CC[C@@H]2O [17β-estradiol] | 2.00 |  | 
Oc1ccc(Cc2ccc(O)cc2)cc1 [Bisphenol F] | −2 |  | 
O=S(=O)(c1ccc(O)cc1)c1ccc(O)cc1 [Bisphenol S] | −2 |  | 
CC(C)(C)c1cc(Cc2cc(C(C)(C)C)c(OCC3CO3)c(C(C)(C)C)c2)cc(C(C)(C)C)c1OCC1CO1 (stereo not drawn) [Diglycidyl ether of 4,4′-methylenebis(2,6-di-tert-butylphenol)] |  |  | genotoxicity [1]: non-genotoxic
Cc1cc(Cc2cc(C)c(O)c(C)c2)cc(C)c1O [Structure 6, 4,4′-methylenebis(2,6-dimethylphenol)] |  | do not exhibit appreciable estrogenic activity | 
CCCC(c1cc(C(C)(C)C)c(O)cc1C)c1cc(C(C)(C)C)c(O)cc1C [Structure 7, 4,4′-butylidenebis(2-t-butyl-5-methylphenol)] |  | do not exhibit appreciable estrogenic activity | 
CC(C)(C)c1cc(Cc2cc(C(C)(C)C)c(O)c(C(C)(C)C)c2)cc(C(C)(C)C)c1O [Structure 8, 4,4′-methylenebis(2,6-di-t-butylphenol)] |  | do not exhibit appreciable estrogenic activity | 
Cc1cc(Cc2cc(C)cc(C(C)(C)C)c2O)c(O)c(C(C)(C)C)c1 [Structure 9] |  | do not exhibit appreciable estrogenic activity | 
CC(C)(C)c1cc(O)c(C(C)(C)C)cc1O [Structure 12, 2,5-di-t-butylhydroquinone] |  | do not exhibit appreciable estrogenic activity | 
